Data set [1] in a line: Cued fear conditioning / extinction training and recall. In kind it is in vivo, mouse. As to the method: Methods: Cued fear conditioning was performed in C57BL/6J mice. On day 1, animals were placed in the chambers and presented with a training session (CS-US pairing). The training consisted of a 2-minute habituation followed by a 30-second, 80 dB tone; during the last 2 seconds of the tone animals received a 1 mA foot shock. This US-CS procedure occurred once for a total of one paired presentation of tone and shock. Freezing behavior (immobility) was recorded in 5-10-see intervals during the session. Percent baseline freezing behavior was determined in the 2-minute habituation period. On day 3, animals were placed in context B, in which tactile and odor cues differed from context A. Following a 2 minute acclimation period animals received 4×30 sec presentations of the CS (tone) in the absence of the US (footshock), with a 45 sec interval between presentations. Freezing was recorded in 5-10-sec intervals to measure baseline freezing response to the altered context, and freezing response to each tone cuc presentation. […] On day 4 (Post-Extinction Testing in Drug-Free State), animals were placed in Context B. Following a 2 min acclimation period, animals received 4×30 sec extinction tone duration presentations of the CS (tone) in the absence of the US (footshock), with a 45 sec interval between presentations. Freezing was recorded in 5-10-sec intervals to measure baseline freezing response to the altered context, and freezing response to each tone cue presentation.

The subject of data set [2] is myelin basic protein (MBP). The data set is described as follows: Myelin basic protein immunohistochemistry in amygdala. The note with it: 10 mg/kg IP, 24 h. The class given is in vivo, rat. As to the method: Immunohistochemistry: The in-life portion of the study was conducted at WuXi Apptec (Cranbury, NJ). Sectioning and staining of brains took place at Neuroscience Associates (NSA, Knoxville, TN). […] Brains were post-fixed in PFA before shipment to NSA for processing and staining. Hemisected brains were mounted, sectioned and stained using standard protocols with myelin-basic protein primary antibody (MBP SMI-99, 1:5000, Biolegend, San Diego, CA) and anti-mouse biotinylated secondary antibody (BA-2001, Vector Laboratories, Newark, CA). Slides were imaged using a Huron Digital Pathology TissueScope LE120 whole slide scanning system. 20× objective was used with a 0.4 μm/pixel resolution.

A short description of data set [3]: Excipient compatibility study (assay, appearance, degradation products). In kind it is physicochemical. As to the method:
Analyses were conducted at t=0, 2, 4 and 8 weeks for appearance, assay, and related substances for samples stored in closed vials at 25° C./60% RH and 40° C./75% RH.
Excipient Compatibility Sample Mixtures: The excipients and API were dispensed individually by weight into 20 mL clear borosilicate (type I) glass vials to fill the appropriate weights as listed in Table 12. Table 12 lists mixtures of API with varied excipients and a stand-alone control sample of API alone. Each excipient mixture sample preparation was conducted using a clean spatula to mix the vial ingredients for 30-60 seconds. Each vial was properly labeled with the description and storage conditions. One vial was used for testing at the initial (t=0) time point. Three vials, closed, were placed at each storage condition to allow sampling at each time point and one vial, closed, was placed at each storage condition for overage.

Data set [4] addresses vesicular monoamine transporter 2 (VMAT2) (Homo sapiens, UniProt Q05940). The following applies: cited from earlier work.
The target of data set [5] is SERT (Rattus norvegicus, UniProt P31652). The data set is described as follows: [3H]5-HT release from rat brain synaptosomes. The class given is biochemical. The note with it: rat brain synaptosomes; read-out: Neurotransmitter release: EC50. The arrangement: from tissue; synaptosomes for uptake and release. As to the method:
(§1) Test compounds and synaptosomes were prepared as described for uptake inhibition assays. Synaptosomes treated with [^3H]5-HT, [^3H]DA or [^3H]NE were loaded onto filter chambers containing GF/C filters and placed in a superfusion system. Oxygenated Krebs buffer was perfused through the chambers at a rate of 1.5 mL/minute at 35° C. using either an 8-channel or a 12-channel peristaltic pump. Trapped air bubbles were removed from the filters prior to collecting fractions to ensure an even flow over the synaptosomal bed. After a superfusion period of 45 minutes, 2 basal fractions were collected followed by 6 fractions following the addition of the test drug. […] Scintillation cocktail was added, and the filters counted to determine residual radioactivity. Drug-evoked release of neurotransmitter was calculated by subtracting the average of the two basal fractions (collected prior to the drug addition), from the four fractions collected in the presence of drug. The drug-evoked release was then expressed as a percentage of the basal release. Potassium-evoked release was calculated by subtracting the average of two fractions collected prior to the addition of high KCl buffer from that in the two fractions following addition of high KCl buffer. Potassium-stimulated release was calculated as a percentage of basal release. […]

The target in data set [6] is T1, 5HT2C receptor (Homo sapiens, UniProt P28335).
T1 construct: host or cells: PathHunter cell lines
The data set is described as follows: GPCRmax screen, agonist mode, 5HT2C. The following applies: 1 or 10 mM. In kind it is cell-based.

Data set [7] concerns the target NET (Rattus norvegicus, UniProt Q63380). The data set is described as follows: [3H]NE release from rat brain synaptosomes. The following applies: rat brain synaptosomes; read-out: Neurotransmitter release: EC50. The class given is biochemical. On the set-up: from tissue; synaptosomes for uptake and release. As to the method:
as §1

SERT, sequence (P31652 whole entry, the tested form may be a part): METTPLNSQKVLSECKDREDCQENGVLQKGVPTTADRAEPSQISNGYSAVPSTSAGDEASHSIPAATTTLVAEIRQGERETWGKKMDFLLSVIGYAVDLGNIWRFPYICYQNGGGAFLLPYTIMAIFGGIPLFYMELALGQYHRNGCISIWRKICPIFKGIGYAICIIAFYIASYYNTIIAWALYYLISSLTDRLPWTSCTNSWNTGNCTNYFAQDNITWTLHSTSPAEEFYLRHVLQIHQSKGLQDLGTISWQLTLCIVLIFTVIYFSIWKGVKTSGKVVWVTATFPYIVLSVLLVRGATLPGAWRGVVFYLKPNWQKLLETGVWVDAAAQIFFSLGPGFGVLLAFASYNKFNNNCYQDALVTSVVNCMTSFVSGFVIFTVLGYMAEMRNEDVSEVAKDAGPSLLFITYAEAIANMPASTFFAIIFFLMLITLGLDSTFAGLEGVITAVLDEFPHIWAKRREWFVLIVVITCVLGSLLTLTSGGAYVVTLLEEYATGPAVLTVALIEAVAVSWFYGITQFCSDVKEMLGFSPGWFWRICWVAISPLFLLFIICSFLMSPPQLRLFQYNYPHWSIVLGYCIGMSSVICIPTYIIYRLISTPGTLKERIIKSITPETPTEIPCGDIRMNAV
NET, sequence (Q63380 1-617): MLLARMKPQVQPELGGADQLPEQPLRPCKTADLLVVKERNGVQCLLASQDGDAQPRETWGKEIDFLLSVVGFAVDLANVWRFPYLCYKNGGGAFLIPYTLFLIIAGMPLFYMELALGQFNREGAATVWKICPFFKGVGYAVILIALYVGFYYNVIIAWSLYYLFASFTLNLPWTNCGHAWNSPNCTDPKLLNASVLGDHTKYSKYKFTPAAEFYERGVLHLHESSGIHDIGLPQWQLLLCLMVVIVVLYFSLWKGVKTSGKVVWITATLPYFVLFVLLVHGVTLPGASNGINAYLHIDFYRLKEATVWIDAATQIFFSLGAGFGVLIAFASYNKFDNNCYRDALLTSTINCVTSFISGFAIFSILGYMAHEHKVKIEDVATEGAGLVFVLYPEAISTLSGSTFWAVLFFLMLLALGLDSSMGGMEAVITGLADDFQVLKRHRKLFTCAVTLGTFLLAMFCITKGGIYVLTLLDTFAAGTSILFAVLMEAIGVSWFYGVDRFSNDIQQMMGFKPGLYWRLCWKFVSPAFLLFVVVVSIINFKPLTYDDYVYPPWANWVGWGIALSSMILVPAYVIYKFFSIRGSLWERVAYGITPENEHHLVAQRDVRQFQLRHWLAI
vesicular monoamine transporter 2 (VMAT2), sequence (Q05940 whole entry, species assumed): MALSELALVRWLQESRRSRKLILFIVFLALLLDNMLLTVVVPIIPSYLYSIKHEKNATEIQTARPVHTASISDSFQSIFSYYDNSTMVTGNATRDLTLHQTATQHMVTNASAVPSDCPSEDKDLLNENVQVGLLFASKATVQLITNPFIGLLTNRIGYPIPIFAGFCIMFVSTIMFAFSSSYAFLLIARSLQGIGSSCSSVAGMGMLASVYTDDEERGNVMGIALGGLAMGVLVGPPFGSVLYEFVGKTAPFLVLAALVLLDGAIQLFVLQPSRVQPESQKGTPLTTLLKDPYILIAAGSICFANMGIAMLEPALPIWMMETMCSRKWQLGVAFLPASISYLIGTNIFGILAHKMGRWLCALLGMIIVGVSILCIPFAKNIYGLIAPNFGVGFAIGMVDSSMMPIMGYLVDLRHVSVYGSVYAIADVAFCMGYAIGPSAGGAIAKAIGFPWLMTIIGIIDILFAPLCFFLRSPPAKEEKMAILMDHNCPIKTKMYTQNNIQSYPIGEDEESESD
T1 sequence (P28335 33-458): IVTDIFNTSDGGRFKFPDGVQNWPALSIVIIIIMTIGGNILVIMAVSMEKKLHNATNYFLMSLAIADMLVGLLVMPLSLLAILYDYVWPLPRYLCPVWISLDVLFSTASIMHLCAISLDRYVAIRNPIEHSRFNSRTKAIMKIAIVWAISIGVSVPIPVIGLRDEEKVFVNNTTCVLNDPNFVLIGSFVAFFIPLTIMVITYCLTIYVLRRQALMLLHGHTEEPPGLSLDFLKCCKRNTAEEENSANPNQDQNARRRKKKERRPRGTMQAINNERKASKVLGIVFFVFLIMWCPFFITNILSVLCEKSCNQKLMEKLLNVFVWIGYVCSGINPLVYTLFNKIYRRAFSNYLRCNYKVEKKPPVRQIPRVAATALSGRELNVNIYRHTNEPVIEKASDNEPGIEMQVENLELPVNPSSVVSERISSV

For the compound `CNC(C)C(=O)c1ccc2c(c1)OCO2` (stereo not shown) [Methylone, 3,4-methylenedioxy-N-methylcathinone], the “Persistence of effect post dose” value in data set [1] (30 mg/kg IP) is “at least 11 days”. In addition, the “Effect on fear extinction training and testing” value in data set [1] (30 mg/kg IP, 30 min before extinction training on Day 3) is “rapid, robust and long-lasting beneficial effect on fear extinction training and testing”. Also, the “Fear extinction training on day 3” value in data set [1] (10, 20 or 30 mg/kg IP) is recorded as “All doses significantly improved fear extinction training on day 3”. Also, the “MBP in basolateral and central nuclei of the amygdala vs. vehicle” value in data set [2] is reported as “significant reduction in MBP”. Besides, the “Total Degradation Products” value in data set [3] (2 Week 25° C. 60% RH) was “<LOQ”; in data set [3] (2 Week 40° C. 75% RH), “<LOQ”; in data set [3] (4 Week 25° C. 60% RH), “<LOQ”; in data set [3] (8 Week 25° C. 60% RH), “<LOQ”; in data set [3] (t = 0, LOQ ≥ 0.1%), “<LOQ”. The “Affinity for VMAT2, times lower than that of MDMA” value in data set [4] is given as “about 13 ×”. Also, the EC50 in data set [5] came out at 620 nM; in data set [7], 330 nM. Moreover, the Agonist % activity entry in data set [6] is reported as “no agonist or antagonist activity”.

Values taken from patent US12295937B2, “Psychoactive medicines and their use for treating psychiatric and neurological conditions and disorders” (Transcend Therapeutics, Inc., priority 2021, dated 2025).
